Data published in ChEMBL document CHEMBL1759969 (Bioorg Med Chem Lett, 2011).

Columns and labels:
[1] = molecular target: T1, Melatonin receptor type 1B (Homo sapiens, UniProt P49286); experiment: Agonist activity at human MT2 receptor expressed in CHO cells by [35S]GTPgamma binding assay; assay type: functional, cell-based
T1 sequence (P49286 whole entry): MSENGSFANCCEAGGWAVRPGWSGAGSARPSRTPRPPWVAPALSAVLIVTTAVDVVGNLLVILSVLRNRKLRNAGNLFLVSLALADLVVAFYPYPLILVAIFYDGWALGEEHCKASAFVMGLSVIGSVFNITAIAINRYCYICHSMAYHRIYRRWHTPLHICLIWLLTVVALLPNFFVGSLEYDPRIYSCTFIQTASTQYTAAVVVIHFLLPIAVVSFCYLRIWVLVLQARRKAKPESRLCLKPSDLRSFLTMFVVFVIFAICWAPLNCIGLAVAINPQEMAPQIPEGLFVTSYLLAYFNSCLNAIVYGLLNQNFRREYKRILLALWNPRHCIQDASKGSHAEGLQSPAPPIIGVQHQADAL

[2] = organism: Homo sapiens; experiment: Selectivity ratio of Ki for human MT1 receptor to Ki for human MT2 receptor
[3] = molecular target: T2, Melatonin receptor type 1A (Homo sapiens, UniProt P48039); experiment: Agonist activity at human MT1 receptor expressed in CHO cells by [35S]GTPgamma binding assay; assay type: functional, cell-based
T2 sequence (P48039 whole entry): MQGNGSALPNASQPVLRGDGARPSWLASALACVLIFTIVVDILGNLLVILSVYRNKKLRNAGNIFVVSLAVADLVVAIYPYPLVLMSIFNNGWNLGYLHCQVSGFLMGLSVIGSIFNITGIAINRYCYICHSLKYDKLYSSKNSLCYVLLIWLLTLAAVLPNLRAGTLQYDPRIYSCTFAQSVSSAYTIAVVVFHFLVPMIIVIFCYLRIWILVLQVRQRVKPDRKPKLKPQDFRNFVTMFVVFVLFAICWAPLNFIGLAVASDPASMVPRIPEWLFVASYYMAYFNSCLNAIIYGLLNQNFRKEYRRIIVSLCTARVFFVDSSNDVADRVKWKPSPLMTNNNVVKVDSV

[4] = molecular target: T2, Melatonin receptor type 1A; experiment: Displacement of 2-[125I]-iodomelatonin from human MT1 receptor expressed in HEK293 cells; assay type: cell-based
[5] = molecular target: T1, Melatonin receptor type 1B; experiment: Displacement of 2-[125I]-iodomelatonin from human MT2 receptor expressed in HEK293 cells; assay type: cell-based

SMILES | EC50 [1] | Ratio Ki [2] | EC50 [3] | Ki [4] | Ki [5]
CCC(=O)NCCn1ccc2ccc(OC)nc21 | 1.4 nM | 11.8 | 5.1 nM | 3.3 nM | 0.28 nM
COc1ccc2c(C(=O)C(F)(F)F)cn(CCNC(C)=O)c2n1 | 10 nM | 3 | 93 nM | 91 nM | 30 nM
COc1ccc2c3c(n(CCNC(C)=O)c2n1)CCCC3 | 1.3 nM | 13.2 | 16 nM | 9 nM | 0.68 nM
COc1ccc2ccn(CCNC(C)=O)c2n1 | 2.1 nM | 2.3 | 4 nM | 1.4 nM | 0.6 nM
CCCC(=O)NCCn1ccc2ccc(OC)nc21 | 0.7 nM | – | – | – | 0.3 nM
COc1ccc2c(CN3CCOCC3)cn(CCNC(C)=O)c2n1 | – | > 20 | – | > 10000 nM | 550 nM
COc1ccc2c(CN(C)Cc3ccccc3)cn(CCNC(C)=O)c2n1 | – | 2.6 | – | 10500 nM | 4010 nM
COc1ccc2c(CN3CCC(C(=O)c4ccc(F)cc4)CC3)cn(CCNC(C)=O)c2n1 | – | 1.3 | – | 9490 nM | 7440 nM
COc1ccc2c(CN3CCN(c4cccc(Cl)c4)CC3)cn(CCNC(C)=O)c2n1 | – | 1.3 | – | 1210 nM | 929 nM
COc1ccc2c(CN3CCCCC3)cn(CCNC(C)=O)c2n1 | – | 0.7 | – | 510 nM | 742 nM

Now from value to molecule:

EC50 [1] | Ratio Ki [2] | EC50 [3] | Ki [4] | Ki [5] | SMILES
380 nM | – | – | – | 117 nM | COc1cnc2[nH]cc(CCNC(C)=O)c2c1
– | – | – | > 10000 nM | > 10000 nM | COc1ccc2c(CN(C)C)cn(CCNC(C)=O)c2n1
– | 7.6 | – | 8300 nM | 1090 nM | CNCc1cn(CCNC(C)=O)c2nc(OC)ccc12
1.1 nM | 0.7 | 12 nM | 0.2 nM | 0.3 nM | COc1ccc2[nH]cc(CCNC(C)=O)c2n1
11 nM | 3.2 | 32 nM | 16 nM | 5 nM | COc1ccc2c(I)cn(CCNC(C)=O)c2n1
